The values below come from patent publication US6759547B1, “5,6,7,8-tetrahydronaphthalen-2-yl 2,6-difluoroheptatrienoic acid derivatives having serum glucose reducing activity” (Allergan, Inc., priority 2003, dated 2004).

Usually EC50 stands for the concentration that produces a half-maximal response.

Molecules are shown by their SMILES. Bounds are passed on as bounds.

Experiment [1] deals with T1, RARβ (Homo sapiens, UniProt P10826).
T1 sequence (P10826 183-417 limits assumed): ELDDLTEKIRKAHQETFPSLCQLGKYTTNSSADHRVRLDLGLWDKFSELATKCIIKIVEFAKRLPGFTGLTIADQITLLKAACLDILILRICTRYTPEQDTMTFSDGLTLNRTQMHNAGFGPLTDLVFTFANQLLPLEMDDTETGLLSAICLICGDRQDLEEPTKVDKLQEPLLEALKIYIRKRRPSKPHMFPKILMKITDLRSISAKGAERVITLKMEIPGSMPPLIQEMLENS
The experiment in a line: chimeric receptor transactivation assay, RARβ. The format is cell-based. To be noted: for EC50: chimeric assay, read-out: RAR Trans. EC50 β; for RAR Trans. efficacy β: efficacy as a percentage compared to the standard compound. An excerpt: One such assay is a chimeric receptor transactivation assay which tests for agonist-like activity in the RARα RARβ and RARγ receptor subtypes, and which is based on work published by Feigner P. L. and Holm M. (1989) Focus, 112 is described in detail in U.S. Pat. No. 5,455,265. The specification of U.S. Pat. No. 5,455,265 is hereby expressly incorporated by reference.
Table 1 discloses the activity of certain exemplary compounds of the invention in the above-described receptor transactivation and binding assays. Particularly, the transactivation data pertaining to activation of the RAR receptors were obtained in the chimeric assay, and the transactivation data pertaining to the activation of RXR receptors were obtained in the holoreceptor assay.

For experiment [2], the target named is T2, RXRα (Homo sapiens, UniProt P19793).
T2 construct: expressed in transfected cells
T2 sequence (P19793 1-462): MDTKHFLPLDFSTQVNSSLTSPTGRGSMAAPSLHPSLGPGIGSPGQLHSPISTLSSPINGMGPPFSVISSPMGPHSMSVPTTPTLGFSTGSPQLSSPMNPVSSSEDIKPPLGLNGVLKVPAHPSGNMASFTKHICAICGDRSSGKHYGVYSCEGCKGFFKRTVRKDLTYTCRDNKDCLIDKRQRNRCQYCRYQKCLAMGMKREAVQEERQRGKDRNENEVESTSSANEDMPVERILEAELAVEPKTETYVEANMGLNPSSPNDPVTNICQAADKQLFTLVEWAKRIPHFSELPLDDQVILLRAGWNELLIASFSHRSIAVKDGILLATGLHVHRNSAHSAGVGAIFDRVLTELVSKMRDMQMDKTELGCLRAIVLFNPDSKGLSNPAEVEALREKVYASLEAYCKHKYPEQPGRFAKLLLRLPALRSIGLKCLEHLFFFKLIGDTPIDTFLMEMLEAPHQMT
As to the kind of experiment: holoreceptor transactivation assay, RXRα. Format: cell-based. To be noted: for RXR Trans. efficacy α: efficacy as a percentage compared to the standard compound; for EC50: holoreceptor assay, read-out: RXR Trans. EC50 α. An excerpt: (§1) Particularly, the transactivation data pertaining to activation of the RAR receptors were obtained in the chimeric assay, and the transactivation data pertaining to the activation of RXR receptors were obtained in the holoreceptor assay.

The target in a further experiment is T3, RXRβ (Homo sapiens, UniProt P28702).
T3 construct: expressed in transfected cells
T3 sequence (P28702 1-533): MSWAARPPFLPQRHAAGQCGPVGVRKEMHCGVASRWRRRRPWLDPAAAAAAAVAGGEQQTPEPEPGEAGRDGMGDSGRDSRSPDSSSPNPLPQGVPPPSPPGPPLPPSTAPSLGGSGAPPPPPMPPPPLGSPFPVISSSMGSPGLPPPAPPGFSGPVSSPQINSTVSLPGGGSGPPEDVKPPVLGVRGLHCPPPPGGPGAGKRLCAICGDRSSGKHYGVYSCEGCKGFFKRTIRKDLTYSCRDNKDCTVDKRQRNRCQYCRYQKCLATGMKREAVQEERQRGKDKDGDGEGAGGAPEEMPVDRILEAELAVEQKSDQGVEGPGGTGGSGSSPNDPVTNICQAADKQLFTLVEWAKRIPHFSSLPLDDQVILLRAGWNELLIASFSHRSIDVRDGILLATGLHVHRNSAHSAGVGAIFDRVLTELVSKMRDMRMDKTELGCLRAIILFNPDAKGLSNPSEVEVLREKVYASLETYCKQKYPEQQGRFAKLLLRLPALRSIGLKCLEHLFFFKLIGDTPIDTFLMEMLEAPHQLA
The experiment in a line: holoreceptor transactivation assay, RXRβ. The format is cell-based. To be noted: for RXR Trans. efficacy β: efficacy as a percentage compared to the standard compound; for EC50: holoreceptor assay, read-out: RXR Trans. EC50 β; for efficacy in activating RXRβ compared with RXRα and RXRγ: transactivation, comparison of subtypes.
Source text: as §1

For the next experiment, the target named is T4, RARα (Homo sapiens, UniProt P10276).
T4 sequence (P10276 1-462): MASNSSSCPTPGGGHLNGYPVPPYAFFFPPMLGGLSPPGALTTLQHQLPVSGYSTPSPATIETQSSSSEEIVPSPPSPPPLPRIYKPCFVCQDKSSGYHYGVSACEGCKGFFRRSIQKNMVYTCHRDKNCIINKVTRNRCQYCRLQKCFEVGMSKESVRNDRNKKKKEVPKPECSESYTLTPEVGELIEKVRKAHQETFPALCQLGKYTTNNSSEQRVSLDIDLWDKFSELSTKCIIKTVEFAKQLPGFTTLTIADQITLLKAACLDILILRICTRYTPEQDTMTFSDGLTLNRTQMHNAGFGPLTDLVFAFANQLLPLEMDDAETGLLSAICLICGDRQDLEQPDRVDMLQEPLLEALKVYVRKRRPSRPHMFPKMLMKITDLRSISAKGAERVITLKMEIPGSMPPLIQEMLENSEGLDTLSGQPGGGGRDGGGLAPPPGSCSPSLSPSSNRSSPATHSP
As to the kind of experiment: ligand binding assay, RARα. To be noted: read-out: RAR Bind. K1 α.

Experiment [3] deals with T5, RARβ (Homo sapiens, UniProt P10826).
T5 sequence (P10826 1-455): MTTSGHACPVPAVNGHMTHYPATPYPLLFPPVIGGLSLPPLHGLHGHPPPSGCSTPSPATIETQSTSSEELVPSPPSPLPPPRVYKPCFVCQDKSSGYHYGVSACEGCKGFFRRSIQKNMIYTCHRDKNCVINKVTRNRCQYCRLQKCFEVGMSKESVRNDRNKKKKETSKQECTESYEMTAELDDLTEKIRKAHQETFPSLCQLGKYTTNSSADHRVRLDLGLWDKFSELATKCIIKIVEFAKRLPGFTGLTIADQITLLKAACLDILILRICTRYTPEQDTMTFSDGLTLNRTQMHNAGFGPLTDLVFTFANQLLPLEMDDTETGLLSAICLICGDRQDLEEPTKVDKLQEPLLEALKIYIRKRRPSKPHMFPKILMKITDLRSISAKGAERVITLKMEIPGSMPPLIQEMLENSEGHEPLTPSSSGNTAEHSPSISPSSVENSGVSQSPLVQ
As to the kind of experiment: ligand binding assay, RARβ. To be noted: read-out: RAR Bind. K1 β.
Source text: (§2) The results obtained in this assay are expressed in EC50 numbers, as they are also in the chimeric receptor transactivation assay. The results of the ligand binding assay are expressed in Ki numbers.

Experiment [4] concerns the target T2, RXRα. As to the kind of experiment: ligand binding assay, RXRα. To be noted: read-out: RXR Bind K1 α.
Source text: as §2

Source text for RARα: as §2

As to `CCCOc1cc2c(cc1\C(C)=C(F)/C=C/C(C)=C(\F)C(=O)O)C(C)(C)CCC2(C)C` [Compound 11, (2Z,4E,6E)-2,6-Difluoro-3-methyl-7-(5,5,8,8-tetramethyl-3-propoxy-5,6,7,8-tetrahydro-naphthalen-2-yl)-octa-2,4,6-trienoic acid], on RARβ [1], the EC50 is above 1000 nM and the “RAR Trans. efficacy β” value was determined as 25%. In addition, at RXRα [2], the “RXR Trans. efficacy α” value came to 7% and the EC50 amounted to 3 nM. Also, on RXRβ, the “RXR Trans. efficacy β” value stood at 24%; the EC50 is 43 nM; the “efficacy in activating RXRβ compared with RXRα and RXRγ” value (shortened to “efficacy … compared with RXRα and RXRγ”) was “significantly more effective in activating the RXRβ subtype”. Further, the Ki on RARα came out at 1800 nM. On RARβ [3], the Ki amounted to 1720 nM. Further, the Ki at RXRα [4] was 11 nM.

For `CC/C(=C(F)/C=C/C(C)=C(\F)C(=O)O)c1cc2c(cc1OCOC)C(C)(C)CCC2(C)C` [Compound 21, (2Z,4E,6E)-2,6-Difluoro-7-(3-methoxymethoxy-5,5,8,8-tetramethyl-5,6,7,8-tetrahydro-naphthalen-2-yl)-3-methyl-nona-2,4,6-trienoic acid], on RARβ [1], the EC50 is 170 nM and the “RAR Trans. efficacy β” value amounted to 24%. For the same compound, on RXRα [2], the “RXR Trans. efficacy α” value was 41% and the EC50 amounted to 9 nM. Moreover, on RXRβ, the “RXR Trans. efficacy β” value was found to be 45%; the EC50 turned out to be 91 nM; the “efficacy … compared with RXRα and RXRγ” value is reported as “significantly more effective in activating the RXRβ subtype”. Besides, on RARα, the Ki is 260 nM. Also, the Ki at RARβ [3] came to 590 nM. At RXRα [4], the Ki worked out at 12 nM.

`CCOc1cc2c(cc1\C(CC)=C(F)/C=C/C(C)=C(\F)C(=O)O)C(C)(C)CCC2(C)C` [Compound 27, (2Z,4E,6E)-7-(3-Ethoxy-5,5,8,8-tetramethyl-5,6,7,8-tetrahydro-naphthalen-2-yl)-2,6-difluoro-3-methyl-nona-2,4,6-trienoic acid]: at RARβ [1], the EC50 stood at 95 nM and the “RAR Trans. efficacy β” value was determined as 14%. Further, on RXRα [2], the “RXR Trans. efficacy α” value is 30% and the EC50 turned out to be 4 nM. Besides, at RXRβ, the “RXR Trans. efficacy β” value is given as 43%; the EC50 was 32 nM; the “efficacy … compared with RXRα and RXRγ” value is given as “significantly more effective in activating the RXRβ subtype”. The Ki on RARα is 930 nM. Moreover, at RARβ [3], the Ki was 1800 nM. For the same compound, the Ki at RXRα [4] was determined as 5 nM.
